# Laboratory results reported in patent US20170143701A1, “CARBOHYDRATE METABOLISM-AMELIORATING AGENT” (SUNTORY HOLDINGS LIMITED, priority 2014, published 2017).
# Test system: C57/BL6J mice
# Assay: In vivo plasma GLP-1 level-increasing action: plasma active GLP-1 level (ELISA) after oral administration
# Details: 10 mg/kg oral; for Significant difference (p < 0.05) vs control group, plasma active GLP-1 level: 30 minutes, Student's t-test; for Plasma active GLP-1 level (relative value to control group as 100), average value: blood 30 minutes after, 0.5% CMC-Na group = 100
# Method: Seven-week-old male C57/BL6J mice were purchased from CLEA Japan, Inc. for use, and they were subjected to an experiment after 1 week of a habituation period.
# After the habituation period, the mice were subjected to 5.5 hours of food deprivation and 2 hours of water deprivation. Thereafter, a cyclic dipeptide dissolved or suspended in a 0.5% CMC-Na aqueous solution in 10 mg/kg was orally administered to each mouse forcibly. After 30 minutes, the blood was collected from the abdominal vena cava under anesthesia, and 1 μL of heparin sodium and 1 μL of 10 mM Sitagliptin phosphate were added to each collected blood, which was then subjected to centrifugation at 8000 rpm for 10 minutes to recover the plasma, and the plasma active GLP-1 level was measured by using the ELISA kit. In the analysis, the active GLP-1 level for a group administered with 0.5% CMC-Na aqueous solution was defined as 100, and relative values thereto were used.
smiles,measurement,setting,value
"O=C1N[C@@H](Cc2c[nH]c3ccccc23)C(=O)N[C@H]1Cc1ccc(O)cc1 [compound 22, cyclo-tryptophanyl-tyrosine]","Significant difference (p < 0.05) vs control group, plasma active GLP-1 level","Table 8, Experiment 3",Yes
same,"Plasma active GLP-1 level (relative value to control group as 100), average value","Table 8, Experiment 3",203
"O=C1N[C@@H](CS)C(=O)N[C@H]1CO [compound 180, cyclo-seryl-cysteine]","Significant difference (p < 0.05) vs control group, plasma active GLP-1 level","Table 15, Experiment 10",Yes
same,"Plasma active GLP-1 level (relative value to control group as 100), average value","Table 15, Experiment 10",259
"CC(C)C1NC(=O)C(CO)NC1=O (centres unmarked) [compound 132, cyclo-valyl-serine]","Significant difference (p < 0.05) vs control group, plasma active GLP-1 level","Table 14, Experiment 9",Yes
same,"Plasma active GLP-1 level (relative value to control group as 100), average value","Table 14, Experiment 9",129
"NC(=O)C[C@@H]1NC(=O)[C@H](Cc2ccc(O)cc2)NC1=O [compound 92, Cyclo(Asn-Tyr)]","Significant difference (p < 0.05) vs control group, plasma active GLP-1 level","Table 12, Experiment 7",No
same,"Plasma active GLP-1 level (relative value to control group as 100), average value","Table 12, Experiment 7",181
"C[C@@H](O)[C@@H]1NC(=O)[C@H](Cc2ccc(O)cc2)NC1=O [compound 90, cyclo-threonyl-tyrosine]","Significant difference (p < 0.05) vs control group, plasma active GLP-1 level","Table 12, Experiment 7",Yes
same,"Plasma active GLP-1 level (relative value to control group as 100), average value","Table 12, Experiment 7",466
"CC1NC(=O)C(CS)NC1=O (centres unmarked) [compound 177, cyclo-alanyl-cysteine]","Significant difference (p < 0.05) vs control group, plasma active GLP-1 level","Table 15, Experiment 10",Yes
same,"Plasma active GLP-1 level (relative value to control group as 100), average value","Table 15, Experiment 10",282
"CC(O)C1NC(=O)C(Cc2ccccc2)NC1=O (centres unmarked) [compound 56, Cyclo(Thr-Phe)]","Significant difference (p < 0.05) vs control group, plasma active GLP-1 level","Table 10, Experiment 5",No
same,"Plasma active GLP-1 level (relative value to control group as 100), average value","Table 10, Experiment 5",87
"O=C1CNC(=O)C(Cc2c[nH]c3ccccc23)N1 (centres unmarked) [compound 26, cyclo-glycyl-tryptophan]","Significant difference (p < 0.05) vs control group, plasma active GLP-1 level","Table 8, Experiment 3",Yes
same,"Plasma active GLP-1 level (relative value to control group as 100), average value","Table 8, Experiment 3",264
"CC(C)CC1NC(=O)C(CCC(N)=O)NC1=O (centres unmarked) [compound 152, cyclo-glutaminyl-leucine]","Significant difference (p < 0.05) vs control group, plasma active GLP-1 level","Table 15, Experiment 10",Yes
same,"Plasma active GLP-1 level (relative value to control group as 100), average value","Table 15, Experiment 10",282
"O=C1CNC(=O)C(Cc2ccc(O)cc2)N1 (centres unmarked) [compound 42, Cyclo(Tyr-Gly)]","Significant difference (p < 0.05) vs control group, plasma active GLP-1 level","Table 10, Experiment 5",No
same,"Plasma active GLP-1 level (relative value to control group as 100), average value","Table 10, Experiment 5",97
"O=C(O)C[C@@H]1NC(=O)[C@H](Cc2ccccc2)NC1=O [compound 33, Cyclo(Asp-Phe)]","Significant difference (p < 0.05) vs control group, plasma active GLP-1 level","Table 9, Experiment 4",No
same,"Plasma active GLP-1 level (relative value to control group as 100), average value","Table 9, Experiment 4",90
"CSCCC1NC(=O)C(Cc2ccccc2)NC1=O (centres unmarked) [compound 67, Cyclo(Met-Phe)]","Significant difference (p < 0.05) vs control group, plasma active GLP-1 level","Table 10, Experiment 5",No
same,"Plasma active GLP-1 level (relative value to control group as 100), average value","Table 10, Experiment 5",93
"CC[C@H](C)[C@@H]1NC(=O)[C@H](CCCCN)NC1=O [compound 150, cyclo-isoleucyl-lysine]","Significant difference (p < 0.05) vs control group, plasma active GLP-1 level","Table 15, Experiment 10",Yes
same,"Plasma active GLP-1 level (relative value to control group as 100), average value","Table 15, Experiment 10",282
"CC[C@H](C)[C@@H]1NC(=O)[C@H]([C@H](C)O)NC1=O [compound 161, cyclo-isoleucyl-threonine]","Significant difference (p < 0.05) vs control group, plasma active GLP-1 level","Table 15, Experiment 10",Yes
same,"Plasma active GLP-1 level (relative value to control group as 100), average value","Table 15, Experiment 10",282
"CC1NC(=O)C(Cc2ccccc2)NC1=O (centres unmarked) [compound 52, Cyclo(Ala-Phe)]","Significant difference (p < 0.05) vs control group, plasma active GLP-1 level","Table 10, Experiment 5",No
same,"Plasma active GLP-1 level (relative value to control group as 100), average value","Table 10, Experiment 5",93
"CC(C)[C@@H]1NC(=O)CNC1=O [compound 155, Cyclo(Val-Gly)]","Significant difference (p < 0.05) vs control group, plasma active GLP-1 level","Table 15, Experiment 10",No
same,"Plasma active GLP-1 level (relative value to control group as 100), average value","Table 15, Experiment 10",55
"O=C(O)CCC1NC(=O)C(Cc2ccccc2)NC1=O (centres unmarked) [compound 53, Cyclo(Glu-Phe)]","Significant difference (p < 0.05) vs control group, plasma active GLP-1 level","Table 10, Experiment 5",No
same,"Plasma active GLP-1 level (relative value to control group as 100), average value","Table 10, Experiment 5",93
"CCC(C)C1NC(=O)C(CCSC)NC1=O (centres unmarked) [compound 119, Cyclo(Met-Ile)]","Significant difference (p < 0.05) vs control group, plasma active GLP-1 level","Table 13, Experiment 8",No
same,"Plasma active GLP-1 level (relative value to control group as 100), average value","Table 13, Experiment 8",106
"CC(C)C[C@@H]1NC(=O)[C@H](C)NC1=O [compound 44, cyclo-alanyl-leucine]","Significant difference (p < 0.05) vs control group, plasma active GLP-1 level","Table 8, Experiment 3",Yes
same,"Plasma active GLP-1 level (relative value to control group as 100), average value","Table 8, Experiment 3",255
"O=C1CNC(=O)C(CS)N1 (centres unmarked) [compound 178, cyclo-glycyl-cysteine]","Significant difference (p < 0.05) vs control group, plasma active GLP-1 level","Table 15, Experiment 10",Yes
same,"Plasma active GLP-1 level (relative value to control group as 100), average value","Table 15, Experiment 10",282
"CC(C)C[C@@H]1NC(=O)[C@H](Cc2ccccc2)NC1=O [compound 16, Cyclo(Leu-Phe)]","Significant difference (p < 0.05) vs control group, plasma active GLP-1 level","Table 9, Experiment 4",No
same,"Plasma active GLP-1 level (relative value to control group as 100), average value","Table 9, Experiment 4",105
"O=C(O)C[C@@H]1NC(=O)[C@H](Cc2ccc(O)cc2)NC1=O [compound 91, Cyclo(Asp-Tyr)]","Significant difference (p < 0.05) vs control group, plasma active GLP-1 level","Table 12, Experiment 7",No
same,"Plasma active GLP-1 level (relative value to control group as 100), average value","Table 12, Experiment 7",181
"CCC(C)C1NC(=O)CNC1=O (centres unmarked) [compound 156, Cyclo(Ile-Gly)]","Significant difference (p < 0.05) vs control group, plasma active GLP-1 level","Table 15, Experiment 10",No
same,"Plasma active GLP-1 level (relative value to control group as 100), average value","Table 15, Experiment 10",145
"NC(=O)CC1NC(=O)C(Cc2ccccc2)NC1=O (centres unmarked) [compound 64, Cyclo(Asn-Phe)]","Significant difference (p < 0.05) vs control group, plasma active GLP-1 level","Table 10, Experiment 5",No
same,"Plasma active GLP-1 level (relative value to control group as 100), average value","Table 10, Experiment 5",93
"CSCCC1NC(=O)C(CCCCN)NC1=O (centres unmarked) [compound 70, Cyclo(Met-Lys)]","Significant difference (p < 0.05) vs control group, plasma active GLP-1 level","Table 10, Experiment 5",No
same,"Plasma active GLP-1 level (relative value to control group as 100), average value","Table 10, Experiment 5",93
"NC(=O)CC[C@@H]1NC(=O)[C@H](Cc2ccc(O)cc2)NC1=O [compound 93, cyclo-glutaminyl-tyrosine]","Significant difference (p < 0.05) vs control group, plasma active GLP-1 level","Table 12, Experiment 7",Yes
same,"Plasma active GLP-1 level (relative value to control group as 100), average value","Table 12, Experiment 7",344
"CC(C)C1NC(=O)C(C(C)O)NC1=O (centres unmarked) [compound 139, cyclo-valyl-threonine]","Significant difference (p < 0.05) vs control group, plasma active GLP-1 level","Table 14, Experiment 9",Yes
same,"Plasma active GLP-1 level (relative value to control group as 100), average value","Table 14, Experiment 9",120
"CC(C)C[C@@H]1NC(=O)[C@H](Cc2cnc[nH]2)NC1=O [compound 103, Cyclo(His-Leu)]","Significant difference (p < 0.05) vs control group, plasma active GLP-1 level","Table 13, Experiment 8",No
same,"Plasma active GLP-1 level (relative value to control group as 100), average value","Table 13, Experiment 8",94
"CSCCC1NC(=O)C(Cc2cnc[nH]2)NC1=O (centres unmarked) [compound 120, cyclo-methionyl-histidine]","Significant difference (p < 0.05) vs control group, plasma active GLP-1 level","Table 13, Experiment 8",Yes
same,"Plasma active GLP-1 level (relative value to control group as 100), average value","Table 13, Experiment 8",154
"CCC(C)C1NC(=O)C(Cc2c[nH]c3ccccc23)NC1=O (centres unmarked) [compound 62, Cyclo(Trp-Ile)]","Significant difference (p < 0.05) vs control group, plasma active GLP-1 level","Table 8, Experiment 3",No
same,"Plasma active GLP-1 level (relative value to control group as 100), average value","Table 8, Experiment 3",178
"O=C1NC(Cc2c[nH]c3ccccc23)C(=O)NC1Cc1ccccc1 (centres unmarked) [compound 28, cyclo-phenylalanyl-tryptophan]","Significant difference (p < 0.05) vs control group, plasma active GLP-1 level","Table 8, Experiment 3",Yes
same,"Plasma active GLP-1 level (relative value to control group as 100), average value","Table 8, Experiment 3",255
"O=C1NC(Cc2ccccc2)C(=O)N2CCCC12 (centres unmarked) [compound 13, Cyclo(Phe-Pro)]","Significant difference (p < 0.05) vs control group, plasma active GLP-1 level","Table 9, Experiment 4",No
same,"Plasma active GLP-1 level (relative value to control group as 100), average value","Table 9, Experiment 4",120
"CC[C@H](C)[C@@H]1NC(=O)[C@H](CO)NC1=O [compound 133, cyclo-isoleucyl-serine]","Significant difference (p < 0.05) vs control group, plasma active GLP-1 level","Table 14, Experiment 9",Yes
"CSCCC1NC(=O)C(Cc2c[nH]c3ccccc23)NC1=O (centres unmarked) [compound 83, Cyclo(Trp-Met)]","Significant difference (p < 0.05) vs control group, plasma active GLP-1 level","Table 11, Experiment 6",No
same,"Plasma active GLP-1 level (relative value to control group as 100), average value","Table 11, Experiment 6",110
"CC(C)CC1NC(=O)C(CC(N)=O)NC1=O (centres unmarked) [compound 106, Cyclo(Asn-Leu)]","Significant difference (p < 0.05) vs control group, plasma active GLP-1 level","Table 13, Experiment 8",No
same,"Plasma active GLP-1 level (relative value to control group as 100), average value","Table 13, Experiment 8",94
"O=C1N[C@@H](Cc2c[nH]c3ccccc23)C(=O)N[C@H]1Cc1c[nH]c2ccccc12 [compound 75, cyclo-tryptophanyl-tryptophan]","Significant difference (p < 0.05) vs control group, plasma active GLP-1 level","Table 8, Experiment 3",Yes
same,"Plasma active GLP-1 level (relative value to control group as 100), average value","Table 8, Experiment 3",229
"CC(C)[C@@H]1NC(=O)[C@H](Cc2c[nH]c3ccccc23)NC1=O [compound 61, Cyclo(Trp-Val)]","Significant difference (p < 0.05) vs control group, plasma active GLP-1 level","Table 8, Experiment 3",No
same,"Plasma active GLP-1 level (relative value to control group as 100), average value","Table 8, Experiment 3",117
"CC[C@H](C)[C@@H]1NC(=O)[C@H](Cc2cnc[nH]2)NC1=O [compound 148, cyclo-isoleucyl-histidine]","Significant difference (p < 0.05) vs control group, plasma active GLP-1 level","Table 15, Experiment 10",Yes
same,"Plasma active GLP-1 level (relative value to control group as 100), average value","Table 15, Experiment 10",259
"C[C@@H](O)[C@@H]1NC(=O)[C@H](Cc2c[nH]c3ccccc23)NC1=O [compound 79, Cyclo(Trp-Thr)]","Significant difference (p < 0.05) vs control group, plasma active GLP-1 level","Table 11, Experiment 6",No
same,"Plasma active GLP-1 level (relative value to control group as 100), average value","Table 11, Experiment 6",100
